From ChEMBL document CHEMBL1157492, “Discovery of potent and cell-active allosteric dual Akt 1 and 2 inhibitors” (Bioorg Med Chem Lett, 2008) come the findings set out here.

Calls of active or inactive are those of the source. The calls are words filed in the database; no cut-off is given here.

Assay [1] has as its target T1, RAC-alpha serine/threonine-protein kinase (Homo sapiens, UniProt P31749). Nature of the assay: Inhibition of Akt1 phosphorylation by HTRF assay. (In general: Time-resolved FRET reads energy transfer from a long-lived donor to a nearby acceptor.)
Assay [2] concerns the target T2, RAC-beta serine/threonine-protein kinase (Homo sapiens, UniProt P31751). Nature of the assay: Inhibition of Akt2 phosphorylation by HTRF assay.
Assay [3] addresses T1, RAC-alpha serine/threonine-protein kinase. Nature of the assay: Inhibition of Akt1 phosphorylation in human by C33a cells by IPKA assay. The format is cell-based.
Assay [4] addresses T2, RAC-beta serine/threonine-protein kinase. Nature of the assay: Inhibition of Akt2 phosphorylation in human by C33a cells by IPKA assay. The format is cell-based.

T1 sequence (P31749 whole entry): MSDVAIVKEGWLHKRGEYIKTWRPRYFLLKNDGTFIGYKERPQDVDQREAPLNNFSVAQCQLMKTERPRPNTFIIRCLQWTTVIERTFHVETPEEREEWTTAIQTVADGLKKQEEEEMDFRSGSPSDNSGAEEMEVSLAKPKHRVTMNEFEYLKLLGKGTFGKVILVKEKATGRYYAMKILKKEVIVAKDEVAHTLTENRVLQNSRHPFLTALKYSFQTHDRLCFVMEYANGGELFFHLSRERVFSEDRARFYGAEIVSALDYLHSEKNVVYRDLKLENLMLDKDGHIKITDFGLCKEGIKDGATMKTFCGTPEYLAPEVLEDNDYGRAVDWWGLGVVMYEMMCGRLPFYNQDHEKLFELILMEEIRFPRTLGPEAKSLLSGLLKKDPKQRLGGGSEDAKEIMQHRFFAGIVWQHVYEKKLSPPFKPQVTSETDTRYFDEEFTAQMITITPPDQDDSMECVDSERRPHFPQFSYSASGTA
T2 sequence (P31751 whole entry): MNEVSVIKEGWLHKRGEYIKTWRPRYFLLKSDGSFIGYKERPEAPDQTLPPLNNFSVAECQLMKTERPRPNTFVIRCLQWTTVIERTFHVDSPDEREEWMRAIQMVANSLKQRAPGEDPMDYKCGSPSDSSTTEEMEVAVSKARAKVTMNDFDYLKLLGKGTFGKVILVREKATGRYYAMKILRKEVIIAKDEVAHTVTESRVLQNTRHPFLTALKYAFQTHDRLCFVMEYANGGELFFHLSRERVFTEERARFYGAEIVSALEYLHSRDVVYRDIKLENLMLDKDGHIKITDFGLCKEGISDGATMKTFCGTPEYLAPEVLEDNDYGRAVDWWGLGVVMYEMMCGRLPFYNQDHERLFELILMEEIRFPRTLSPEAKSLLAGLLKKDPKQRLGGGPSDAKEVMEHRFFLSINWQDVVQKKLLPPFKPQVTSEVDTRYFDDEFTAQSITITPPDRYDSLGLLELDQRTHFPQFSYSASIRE

In the case of `c1ccc(-c2cc3cnc(N4CCOCC4)nc3nc2-c2ccc(CN3CCC(c4nnc(-c5ccccn5)[nH]4)CC3)cc2)cc1`, the IC50 (in general, the concentration that gives 50% inhibition) in assay [1] is 5 nM; in assay [2], 43 nM; in assay [3] it was 19 nM; in assay [4] it was 243 nM.
The matching figures for `CN(C)CCNc1ncc2cc(-c3ccccc3)c(-c3ccc(CN4CCC(c5nnc(-c6ccccn6)[nH]5)CC4)cc3)nc2n1`: 79 nM, 154 nM, 208 nM and 223 nM.
The matching figures for `C[C@@H]1CN[C@@H](C)CN1c1ncc2cc(-c3ccccc3)c(-c3ccc(CN4CCC(c5nnc(-c6ccccn6)[nH]5)CC4)cc3)nc2n1`: 43 nM, 29 nM, 194 nM and 199 nM.
With `OCCN1CCN(c2ncc3cc(-c4ccccc4)c(-c4ccc(CN5CCC(c6nnc(-c7ccccn7)[nH]6)CC5)cc4)nc3n2)CC1`, the IC50 was determined as 9 nM in assay [1], 31 nM in assay [2], 17 nM in assay [3] and 41 nM in assay [4].
As to `CSc1ncc2cc(-c3ccccc3)c(-c3ccc(CNCCC(=O)c4ccccc4N)cc3)nc2n1`, the figures for the IC50 in assay [3] and in assay [4] were 78 nM and 388 nM, respectively.
Regarding `CC(=O)N1CCN(c2ncc3cc(-c4ccccc4)c(-c4ccc(CN5CCC(c6nnc(-c7ccccn7)[nH]6)CC5)cc4)nc3n2)CC1`, the IC50 in assay [1] was found to be 5 nM; in assay [2], 16 nM; in assay [3], 15 nM; in assay [4], 145 nM.
With `c1ccc(-c2cc3cnc(N4CCn5cnnc5C4)nc3nc2-c2ccc(CN3CCC(c4nnc(-c5ccccn5)[nH]4)CC3)cc2)cc1`, the IC50 in assay [1] worked out at 19 nM; in assay [2], 138 nM; in assay [3] it was 125 nM; in assay [4], 735 nM.
For `C[C@@H]1CN(c2ncc3cc(-c4ccccc4)c(-c4ccc(CN5CCC(c6nnc(-c7ccccn7)[nH]6)CC5)cc4)nc3n2)CCN1`, in that order: 8 nM, 25 nM, 36 nM and 44 nM.
For `OC1CCN(c2ncc3cc(-c4ccccc4)c(-c4ccc(CN5CCC(c6nnc(-c7ccccn7)[nH]6)CC5)cc4)nc3n2)CC1`, in that order: 7 nM, 45 nM, 17 nM and 168 nM.
The matching figures for `c1ccc(-c2cc3cnc(N4CCCCC4)nc3nc2-c2ccc(CN3CCC(c4nnc(-c5ccccn5)[nH]4)CC3)cc2)cc1`: 18 nM, 93 nM, 36 nM and 229 nM.
Take `CS(=O)(=O)N1CCN(c2ncc3cc(-c4ccccc4)c(-c4ccc(CN5CCC(c6nnc(-c7ccccn7)[nH]6)CC5)cc4)nc3n2)CC1`: the half-maximal inhibitory concentration (IC50) came to 7 nM in assay [1], 23 nM in assay [2], 20 nM in assay [3] and 196 nM in assay [4].
The matching figures for `CN(C)C(=O)N1CCN(c2ncc3cc(-c4ccccc4)c(-c4ccc(CN5CCC(c6nnc(-c7ccccn7)[nH]6)CC5)cc4)nc3n2)CC1`: 18 nM, 40 nM, 13 nM and 177 nM.
`CN1CCN(c2nccc3nc(-c4ccc(CN5CCC(c6nnc(-c7ccccn7)[nH]6)CC5)cc4)c(-c4ccccc4)cc23)CC1`: the IC50 in assay [1] was found to be 285 nM; in assay [2], 539 nM. In addition, the outcome in assay [3] and in assay [4] was inactive.
Turning to `C[C@@H]1CN(c2ncc3cc(-c4ccccc4)c(-c4ccc(CN5CCC(c6nnc(-c7ccccn7)[nH]6)CC5)cc4)nc3n2)C[C@H](C)O1`, the half-inhibitory concentration (IC50) in assay [1] came out at 28 nM; in assay [2] it was 102 nM; in assay [3] it was 42 nM; in assay [4], 184 nM.
Consider `CN(C)CC(=O)N1CCN(c2ncc3cc(-c4ccccc4)c(-c4ccc(CN5CCC(c6nnc(-c7ccccn7)[nH]6)CC5)cc4)nc3n2)CC1`, for which the IC50 was 6 nM in assay [1], 6 nM in assay [2], 3 nM in assay [3] and 19 nM in assay [4].
In the case of `O[C@@H]1CN(c2ncc3cc(-c4ccccc4)c(-c4ccc(CN5CCC(c6nnc(-c7ccccn7)[nH]6)CC5)cc4)nc3n2)CCN1`, the IC50 in assay [1] was determined as 25 nM; in assay [2], 67 nM; in assay [3], 61 nM; in assay [4], 421 nM.
The matching figures for `c1ccc(-c2cc3cnc(-n4ccnc4)nc3nc2-c2ccc(CN3CCC(c4nnc(-c5ccccn5)[nH]4)CC3)cc2)cc1`: 5 nM, 73 nM, 35 nM and 684 nM.
For `CN1CCN(c2cc3cc(-c4ccccc4)c(-c4ccc(CN5CCC(c6nnc(-c7ccccn7)[nH]6)CC5)cc4)nc3cn2)CC1`, in that order: 740 nM, 59 nM, 924 nM and 133 nM.
`CN1CCN(c2nccc3cc(-c4ccccc4)c(-c4ccc(CN5CCC(c6nnc(-c7ccccn7)[nH]6)CC5)cc4)nc23)CC1`: the concentration for half-maximal inhibition (IC50) in assay [1] was 720 nM; in assay [2], 3570 nM. In addition, the result in assay [3] and in assay [4] was inactive.
Consider `C[C@@H]1CN(c2ncc3cc(-c4ccccc4)c(-c4ccc(CN5CCC(c6nnc(-c7ccccn7)[nH]6)CC5)cc4)nc3n2)C[C@H](C)N1`, for which the IC50 in assay [1] was determined as 45 nM; in assay [2], 77 nM; in assay [3], 46 nM; in assay [4], 101 nM.
For `CN(C)C1CCN(c2ncc3cc(-c4ccccc4)c(-c4ccc(CN5CCC(c6nnc(-c7ccccn7)[nH]6)CC5)cc4)nc3n2)CC1`, in that order: 10 nM, 22 nM, 23 nM and 70 nM.
For `CN1CC(N2CCN(c3ncc4cc(-c5ccccc5)c(-c5ccc(CN6CCC(c7nnc(-c8ccccn8)[nH]7)CC6)cc5)nc4n3)CC2)C1`, in that order: 12 nM, 9 nM, 6 nM and 27 nM.
For `FC1(F)CCN(c2ncc3cc(-c4ccccc4)c(-c4ccc(CN5CCC(c6nnc(-c7ccccn7)[nH]6)CC5)cc4)nc3n2)C1`, in that order: 20 nM, 252 nM, 75 nM and 462 nM.
As to `C[C@H]1CN(c2ncc3cc(-c4ccccc4)c(-c4ccc(CN5CCC(c6nnc(-c7ccccn7)[nH]6)CC5)cc4)nc3n2)CCN1`, the 50% inhibitory concentration (IC50) was 17 nM in assay [1], 47 nM in assay [2], 75 nM in assay [3] and 125 nM in assay [4].
As to `CN1CCN(c2ncc3cc(-c4ccccc4)c(-c4ccc(CN5CCC(c6nnc(-c7ccccn7)[nH]6)CC5)cc4)nc3n2)CC1`, the IC50 in assay [1] was 9 nM; in assay [2] it was 27 nM; in assay [3], 36 nM; in assay [4], 52 nM.
`O=S1(=O)CCN(c2ncc3cc(-c4ccccc4)c(-c4ccc(CN5CCC(c6nnc(-c7ccccn7)[nH]6)CC5)cc4)nc3n2)CC1`: the IC50 amounted to 38 nM in assay [1] and 297 nM in assay [2]. The result in assay [3] was inactive.
